The source of these data is patent US9533049B2, “Method for preparing nanoparticles based on functional amphiphilic molecules or macromolecules, and the use thereof” (UNIVERSITE VICTOR SEGALEN BOURDEAUX 2, priority 2007, dated 2017).

The structures appear in SMILES notation.

Common to all, as to type: cell-based
Test [1] has as its system IGROV1 cells. Put plainly: Cytotoxicity, MTS colorimetric assay (Example 21). As to conditions: IGROV1, incubation time 24 h. The protocol: 1000 to 5000 IGROV1 cells are incubated in 100 μL of medium with serum per well (96-well plate). After 24 h the medium is removed and the cells are treated for 1 to 3 days with the formulations according to the invention and/or free cis-Pt (at the desired concentrations). The cells are incubated at 37° C. in 200 μL of medium with serum.
The survival of the cells was determined, and the overall percentage of death (or cytotoxicity) obtained at the different concentrations of formulations tested was compared with that obtained with the negative controls (untreated cells). The cytotoxicity results were presented in the form of dose-effect curves characterized by their inhibitory concentration 50 (IC50), i.e. the concentration at which 50% dead cells are observed.

Test [2] deals with IGROV1 (ovarian adenocarcinoma line, sensitive to cis-platin). The test can be described thus: Cytotoxicity, MTS assay (Example 22), IGROV1. Particulars: IGROV1, treatment 24 hours in medium without serum, MTS 48 hours after washing; read-out: concentration necessary to obtain 50% cell death (IC50). On the procedure:
(§1) 2500 cells (IGROV1, SKOV3, ovarian adenocarcinoma lines) per well are incubated in 100 μL of the medium with serum in a 96-well plate. After 24 hours the medium is aspirated and the cells are treated with free cis-platin or cis-platin encapsulated in the nanoparticles of Example 16 in 100 μL of the medium without serum at different concentrations (500, 100, 10, 1, 0.1, 0.01, 0.001 μM). After treatment for 24 hours, the medium is removed and the cells are washed twice with 100 μL of PBS then incubated with 100 μL of the medium with serum.
(§2) The absorbance at 490 nm is measured after incubation for 2 to 4 hours at 37° C. The absorbance is proportional to the cell viability.

The subject of test [3] is human cancer cell line HCT8 (colorectal adenocarcinoma). The test can be described thus: Cytotoxicity, crystal violet staining, HCT8 line. As to conditions: HCT8, short exposure 30 min in physiological serum; preliminary results. The protocol: The test implemented uses the human cancer cell line HCT8 (colorectal adenocarcinoma), known for its intrinsic resistance to platinum derivatives.
The protocol is as follows: • […], the cells are implanted in 96-well plates at a density of 50,000 cells per well. • On D0, the cells are treated by the formulation test, either for a short exposure period (30 min) in physiological serum, or for a long exposure period (72 h) in culture medium. The range of concentrations produced comprises the points 0-0.4-0.8-1.5-3-6.25-12.5-25-50 and 100 mg/L. Negative controls (untreated cells) and positive controls (cis-platin) were carried out simultaneously. • On D3, the culture medium is changed, and the 72 h treatment stopped. • On D6, the protocol is completed, and the cells remaining at the bottom of the well are stained with crystal violet.
The survival of the cells was determined, and the overall percentage of death (or cytotoxicity) obtained at the different test formulation concentrations was compared with that obtained with the negative controls (untreated cells). The cytotoxicity results were presented in the form of dose-effect curves characterized by their inhibitory concentration 50 (IC50), i.e. the concentration at which 50% dead cells are observed.

For test [4], the system named is SKOV3 (ovarian adenocarcinoma line, resistant to cis-platin). The test can be described thus: Cytotoxicity, MTS assay (Example 22), SKOV3. Particulars: SKOV3, treatment 24 hours in medium without serum, MTS 48 hours after washing; read-out: concentration necessary to obtain 50% cell death (IC50). The protocol:
as §1, §2
(Formazan colour is commonly taken as a measure of viable cells.)

The test system of test [5] is IGROV1 cells. The test can be described thus: Assay of intracellular cis-platin (ICP optical assay after cell lysis). As to conditions: 10^6 cells, 100 μM, 2 h. The protocol:
IGROV1 cells (ovarian adenocarcinoma line) at 80% confluence (dish 10 cm in diameter) are treated with 100 μM of free cis-platin or cis-platin encapsulated in the nanoparticles of Example 16 for 2, 4 or 6 h. On completion of this treatment two washings with PBS are carried out. The cells are treated with trypsin and resuspended in PBS. Two washings of the cell suspensions with PBS are carried out (centrifugation 1000 rpm/1 min). The cells are suspended in 1 mL of PBS and counted.
10^6 cells are lysed with 500 μL of the cell lysis solution (lysis buffer from SIGMA). The volume is topped up to 5 mL with milli-Q water with 1% HNO3 acid.

Consider `N.N.[Cl][Pt][Cl]` [cis-platin], for which the “IC50 Expressed” value in the test with IGROV1 cells [1] (mg/L of cis-platin) is on record as 9.48 mg/L. Also, the IC50 in the test with IGROV1 cells [1] (read-out: IC50 Expressed) came to 31.6 µM; in test [2], 2410 nM; in test [4], 4.3 µM. Moreover, in test [3], the “IC50 (mg/L)” value was “IC50 > at 100 mg/L”. Also, in the test on IGROV1 cells [5], the cis-platin internalized was 0.5 nmol.
